# System: Yersinia enterocolitica
# Assay: MIC agar dilution, micro-organism 8 (11176)
# Assay type: cell-based
# Conditions: Yersinia enterocolitica 11176; 48 hrs; read-out: MIC
# Protocol: (§1) Throughout the period of testing the microbial strains were subcultured and incubated for 18-20 hours at 37° C. on a weekly basis. Horse blood agar plates were used to sustain the micro-organisms both prior to and throughout testing. The alkoxylated alkanols listed in Table II below were obtained (these are obtainable from Sigma-Aldrich Company Ltd, Dorset, England), each having a GC purity of at least 97%.
# (§2) Molar equivalent concentrations were used to allow comparison between compounds of differing molecular mass. Due to weighing difficulties, any compound in solid form was melted in a water bath prior to dilution. To make ten-times strength concentrations, which takes into account agar dilution, 0.0352 mmol of each compound was weighed into plastic universal bottles and 4 mL of sterile distilled water (SDW) was added. To produce a homogenous emulsion the universals were vortexed; once achieved the emulsions were serial diluted by adding 2 mL to 2 mL of SDW.
# (§3) Myristyl alcohol and lauryl alcohol were re-weighed and dissolved in 25 μL of the polar solvent 1-methyl-2-pyrrolidone (M6762; Sigma-Aldrich) in sterile glass universals due to an inability to achieve an even suspension. To maintain an even emulsion in the presence of SDW 37.5 μL of the non-ionic detergent Tween 20 (P1379, Sigma-Aldrich) was also added. 3.9375 mL of SDW was added to these, to create a 4 mL volume; they were vortexed and diluted as before.
# (§4) For every 100 mL of Isosensitest agar (IST) (CM0471; Oxoid, Basingstoke, England), 3.1 g of the IST powder was added to 100 mL SDW (as per manufacturer's instructions) and sterilised for 15 minutes at 121° C. Once sterilised, the molten agar was cooled to 50° C. in a water-bath. Subsequently 4.8 g of CCEY powder (BC2160; Bioconnections, Wetherby, England), also known as Brazier's medium, was added to 100 mL SDW for every 100 mL of agar needed. This was then sterilised for 15 minutes at 121° C. Once sterilised the molten agar was cooled to 50° C. in a water-bath and 4 mL of egg-yolk emulsion (S2073; TCS Biosciences Ltd, Buckingham, United Kingdom) and 1 mL of lysed defibrinated horse blood (HB035; TCS Biosciences Ltd, Buckingham, United Kingdom) were also added for every 100 mL needed. Horse blood lysis is achieved by dilution to half concentration with SDW; when fully lysed the mixture will turn dark red in colour.
# (§5) 18 mL agar was added to each universal and then poured into sterile Petri dishes. This step creates a 1/10 dilution resulting in agar plates of the required strength. Control plates for each set of strains were created by adding 18 mL of agar to 2 mL of SDW.
# (§6) Suspensions of each bacterial species were prepared with a density equal to that of a 0.5 McFarland standard using a densitometer. All suspensions were made using sterile distilled water and fresh 18-20 hour cultures. As a 0.5 McFarland standard contains 1.5×10^8 CFU/mL and the multipoint inoculators applies 1 μL spots of liquid, each bacterial suspension was diluted 1/15 (20 μL suspension to 280 μL sterile distilled water).
# (§7) Bacterial suspensions were prepared from fresh 18-24 hour cultures as previously described. 1 μL of each strain was inoculated onto all 100 agar plates containing a different chemical concentration and the 2 control plates. This was done using a multipoint inoculator which inoculates 20 strains per plate. All plates were incubated for 22 hours at 37° C. in aerobic conditions.
# (§8) Each plate was examined for bacterial growth after 22 and 48 hours, with each being incubated in between examinations. A positive result was recorded as growth of ≧10 colonies. A negative result was recorded as growth of <10 colonies as this is equivalent to 99.9% inhibition. The lowest concentration of chemical that inhibited growth was recorded as the MIC. The results are recorded in Table IV below, where the numbers are quoted in mmol/L.
# (§9) Further experiments have also been conducted to determine the MIC of a number of other compositions as follows. […]
row,Structure (SMILES),MIC [µM]
1,"CCCCCCCCCCCCOCC(C)O (racemic) [PG1, 1-methyl-3-oxapentadecanol]",> 880
2,"OCCCCCCCCCCCCO [D, 1,12-dodecanediol, reference compound]",> 880

# System: Staphylococcus aureus (MRSA)
# Assay: MIC agar dilution, micro-organism 12 (11939)
# Assay type: cell-based
# Conditions: Staphylococcus aureus, MRSA, 48 h, Staphylococcus aureus (MRSA) 11939; 48 hrs; read-out: MIC
# Protocol: as §1, §2, §3, §4, §5, §6, §7
# as §8, with “mmol/L. […]” for “mmol/L.”
row,Structure (SMILES),MIC [µM]
1,"CCCCCCCCCCCCOCC(C)O (racemic) [PG1, 1-methyl-3-oxapentadecanol]",880
2,"OCCCCCCCCCCCCO [D, 1,12-dodecanediol, reference compound]",> 880

# System: Providencia rettgeri
# Assay: MIC agar dilution, micro-organism 3 (7475)
# Assay type: cell-based
# Conditions: Providencia rettgeri 7475; 48 hrs; read-out: MIC
# Protocol: as §1, §2, §3, §4, §5, §6, §7
# as §8, with “mmol/L. […]” for “mmol/L.”
row,Structure (SMILES),MIC [µM]
1,"CCCCCCCCCCCCOCC(C)O (racemic) [PG1, 1-methyl-3-oxapentadecanol]",880
2,"OCCCCCCCCCCCCO [D, 1,12-dodecanediol, reference compound]",> 880

# System: Pseudomonas aeruginosa
# Assay: MIC agar dilution, micro-organism 7 (10662)
# Assay type: cell-based
# Conditions: Pseudomonas aeruginosa 10662; 48 hrs; read-out: MIC
# Protocol: as §1, §2, §3, §4, §5, §6, §7, §8, §9
row,Structure (SMILES),MIC [µM]
1,"CCCCCCCCCCCCOCC(C)O (racemic) [PG1, 1-methyl-3-oxapentadecanol]",> 880
2,"OCCCCCCCCCCCCO [D, 1,12-dodecanediol, reference compound]",> 880

# System: Burkholderia cepacia
# Assay: MIC agar dilution, micro-organism 9 (1222)
# Assay type: cell-based
# Conditions: Burkholderia cepacia 1222; 48 hrs; read-out: MIC
# Protocol: as §1, §2, §3, §4, §5, §6, §7, §8, §9
row,Structure (SMILES),MIC [µM]
1,"CCCCCCCCCCCCOCC(C)O (racemic) [PG1, 1-methyl-3-oxapentadecanol]",> 880
2,"OCCCCCCCCCCCCO [D, 1,12-dodecanediol, reference compound]",> 880

# System: Enterococcus faecalis
# Assay: MIC agar dilution, micro-organism 17 (775)
# Assay type: cell-based
# Conditions: Enterococcus faecalis 775; 48 hrs; read-out: MIC
# Protocol: as §1, §2, §3, §4, §5, §6, §7
# as §8, with “mmol/L. […]” for “mmol/L.”
row,Structure (SMILES),MIC [µM]
1,"CCCCCCCCCCCCOCC(C)O (racemic) [PG1, 1-methyl-3-oxapentadecanol]",> 880
2,"OCCCCCCCCCCCCO [D, 1,12-dodecanediol, reference compound]",> 880

# System: Bacillus subtilis
# Assay: MIC agar dilution, micro-organism 18 (9372)
# Assay type: cell-based
# Conditions: Bacillus subtilis 9372; 48 hrs; read-out: MIC
# Protocol: as §1, §2, §3, §4, §5, §6, §7
# as §8, with “mmol/L. […]” for “mmol/L.”
row,Structure (SMILES),MIC [µM]
1,"CCCCCCCCCCCCOCC(C)O (racemic) [PG1, 1-methyl-3-oxapentadecanol]",> 880
2,"OCCCCCCCCCCCCO [D, 1,12-dodecanediol, reference compound]",> 880

# System: Staphylococcus epidermidis
# Assay: MIC agar dilution, micro-organism 14 (11047)
# Assay type: cell-based
# Conditions: Staphylococcus epidermidis 11047; 48 hrs; read-out: MIC
# Protocol: as §1, §2, §3, §4, §5, §6, §7
# as §8, with “mmol/L. […]” for “mmol/L.”
row,Structure (SMILES),MIC [µM]
1,"CCCCCCCCCCCCOCC(C)O (racemic) [PG1, 1-methyl-3-oxapentadecanol]",> 880
2,"OCCCCCCCCCCCCO [D, 1,12-dodecanediol, reference compound]",> 880

# System: Escherichia coli
# Assay: MIC agar dilution, micro-organism 1 (10418)
# Assay type: cell-based
# Conditions: Escherichia coli 10418; 48 hrs; read-out: MIC
# Protocol: as §1, §2, §3, §4, §5, §6, §7
# as §8, with “mmol/L. […]” for “mmol/L.”
row,Structure (SMILES),MIC [µM]
1,"CCCCCCCCCCCCOCC(C)O (racemic) [PG1, 1-methyl-3-oxapentadecanol]",> 880
2,"OCCCCCCCCCCCCO [D, 1,12-dodecanediol, reference compound]",> 880

# System: Candida albicans
# Assay: MIC agar dilution, micro-organism 19 (90028)
# Assay type: cell-based
# Conditions: Candida albicans 90028; 48 hrs; read-out: MIC
# Protocol: as §1, §2, §3, §4, §5, §6, §7
# as §8, with “mmol/L. […]” for “mmol/L.”
row,Structure (SMILES),MIC [µM]
1,"CCCCCCCCCCCCOCC(C)O (racemic) [PG1, 1-methyl-3-oxapentadecanol]",> 880
2,"OCCCCCCCCCCCCO [D, 1,12-dodecanediol, reference compound]",> 880

# System: Enterobacter cloacae
# Assay: MIC agar dilution, micro-organism 4 (11936)
# Assay type: cell-based
# Conditions: Enterobacter cloacae 11936; 48 hrs; read-out: MIC
# Protocol: as §1, §2, §3, §4, §5, §6, §7, §8, §9
row,Structure (SMILES),MIC [µM]
1,"CCCCCCCCCCCCOCC(C)O (racemic) [PG1, 1-methyl-3-oxapentadecanol]",> 880
2,"OCCCCCCCCCCCCO [D, 1,12-dodecanediol, reference compound]",> 880

# System: Salmonella typhimurium
# Assay: MIC agar dilution, micro-organism 6 (74)
# Assay type: cell-based
# Conditions: Salmonella enterica; Salmonella typhimurium 74; 48 hrs; read-out: MIC
# Protocol: as §1, §2, §3, §4, §5, §6, §7, §8, §9
row,Structure (SMILES),MIC [µM]
1,"CCCCCCCCCCCCOCC(C)O (racemic) [PG1, 1-methyl-3-oxapentadecanol]",> 880
2,"OCCCCCCCCCCCCO [D, 1,12-dodecanediol, reference compound]",> 880

# System: Acinetobacter baumannii
# Assay: MIC agar dilution, micro-organism 10 (19606)
# Assay type: cell-based
# Conditions: Acinetobacter baumannii 19606; 48 hrs; read-out: MIC
# Protocol: as §1, §2, §3, §4, §5, §6, §7, §8, §9
row,Structure (SMILES),MIC [µM]
1,"CCCCCCCCCCCCOCC(C)O (racemic) [PG1, 1-methyl-3-oxapentadecanol]",> 880
2,"OCCCCCCCCCCCCO [D, 1,12-dodecanediol, reference compound]",> 880

# System: Enterococcus faecium
# Assay: MIC agar dilution, micro-organism 16 (7171)
# Assay type: cell-based
# Conditions: Enterococcus faecium 7171; 48 hrs; read-out: MIC
# Protocol: as §1, §2, §3, §4, §5, §6, §7
# as §8, with “mmol/L. […]” for “mmol/L.”
row,Structure (SMILES),MIC [µM]
1,"CCCCCCCCCCCCOCC(C)O (racemic) [PG1, 1-methyl-3-oxapentadecanol]",> 880
2,"OCCCCCCCCCCCCO [D, 1,12-dodecanediol, reference compound]",> 880

# System: Listeria monocytogenes
# Assay: MIC agar dilution, micro-organism 15 (11994)
# Assay type: cell-based
# Conditions: Listeria monocytogenes 11994; 48 hrs; read-out: MIC
# Protocol: as §1, §2, §3, §4, §5, §6, §7
# as §8, with “mmol/L. […]” for “mmol/L.”
row,Structure (SMILES),MIC [µM]
1,"CCCCCCCCCCCCOCC(C)O (racemic) [PG1, 1-methyl-3-oxapentadecanol]",> 880
2,"OCCCCCCCCCCCCO [D, 1,12-dodecanediol, reference compound]",> 880

# System: Candida glabrata
# Assay: MIC agar dilution, micro-organism 20 (3943)
# Assay type: cell-based
# Conditions: Nakaseomyces glabratus, 48 h, Candida glabrata 3943; 48 hrs; read-out: MIC
# Protocol: as §1, §2, §3, §4, §5, §6, §7
# as §8, with “mmol/L. […]” for “mmol/L.”
row,Structure (SMILES),MIC [µM]
1,"CCCCCCCCCCCCOCC(C)O (racemic) [PG1, 1-methyl-3-oxapentadecanol]",> 880
2,"OCCCCCCCCCCCCO [D, 1,12-dodecanediol, reference compound]",> 880

# System: Staphylococcus aureus
# Assay: MIC agar dilution, micro-organism 13 (6571)
# Assay type: cell-based
# Conditions: Staphylococcus aureus, 48 h, Staphylococcus aureus 6571; 48 hrs; read-out: MIC
# Protocol: as §1, §2, §3, §4, §5, §6, §7
# as §8, with “mmol/L. […]” for “mmol/L.”
row,Structure (SMILES),MIC [µM]
1,"CCCCCCCCCCCCOCC(C)O (racemic) [PG1, 1-methyl-3-oxapentadecanol]",> 880
2,"OCCCCCCCCCCCCO [D, 1,12-dodecanediol, reference compound]",> 880

# System: Steptococcus pyogenes
# Assay: MIC agar dilution, micro-organism 11 (8306)
# Assay type: cell-based
# Conditions: 48 h, Steptococcus pyogenes 8306; 48 hrs; read-out: MIC
# Protocol: as §1, §2, §3, §4, §5, §6, §7
# as §8, with “mmol/L. […]” for “mmol/L.”
row,Structure (SMILES),MIC [µM]
1,"CCCCCCCCCCCCOCC(C)O (racemic) [PG1, 1-methyl-3-oxapentadecanol]",> 880
2,"OCCCCCCCCCCCCO [D, 1,12-dodecanediol, reference compound]",> 880

# System: Klebsiella pneumoniae
# Assay: MIC agar dilution, micro-organism 2 (9528)
# Assay type: cell-based
# Conditions: Klebsiella pneumoniae 9528; 48 hrs; read-out: MIC
# Protocol: as §1, §2, §3, §4, §5, §6, §7, §8, §9
row,Structure (SMILES),MIC [µM]
1,"CCCCCCCCCCCCOCC(C)O (racemic) [PG1, 1-methyl-3-oxapentadecanol]",> 880
2,"OCCCCCCCCCCCCO [D, 1,12-dodecanediol, reference compound]",> 880

# System: Serratia marcescens
# Assay: MIC agar dilution, micro-organism 5 (10211)
# Assay type: cell-based
# Conditions: Serratia marcescens 10211; 48 hrs; read-out: MIC
# Protocol: as §1, §2, §3, §4, §5, §6, §7, §8, §9
row,Structure (SMILES),MIC [µM]
1,"CCCCCCCCCCCCOCC(C)O (racemic) [PG1, 1-methyl-3-oxapentadecanol]",> 880
2,"OCCCCCCCCCCCCO [D, 1,12-dodecanediol, reference compound]",> 880
